Laboratory results reported in US6784153B1, “Methods of homing molecules to lung using membrane dipeptidase” (The Burnham Institute, priority 1998, dated 2004).
Entries after “also recorded” stand apart in the source; their conditions may differ.

Legend:
MDP = target: T1, MDP (Mus musculus, UniProt P31428); assay: inhibition of MDP activity (hydrolysis of Gly-D-Phe, fluorimetric); type: biochemical, murine; conditions: Gly-D-Phe 0.5 mM; extracts from MDP-expressing COS-1 cells; listed as GFE-1
T1 construct: The amplified 1.3 kb murine MDP cDNA was digested with KpnI and XbaI, and inserted into the same sites of the pcDNA3 expression vector; expressed in transfected cells; host or cells: COS-1 cells, pcDNA3 expression vector
T1 sequence (P31428 17-384): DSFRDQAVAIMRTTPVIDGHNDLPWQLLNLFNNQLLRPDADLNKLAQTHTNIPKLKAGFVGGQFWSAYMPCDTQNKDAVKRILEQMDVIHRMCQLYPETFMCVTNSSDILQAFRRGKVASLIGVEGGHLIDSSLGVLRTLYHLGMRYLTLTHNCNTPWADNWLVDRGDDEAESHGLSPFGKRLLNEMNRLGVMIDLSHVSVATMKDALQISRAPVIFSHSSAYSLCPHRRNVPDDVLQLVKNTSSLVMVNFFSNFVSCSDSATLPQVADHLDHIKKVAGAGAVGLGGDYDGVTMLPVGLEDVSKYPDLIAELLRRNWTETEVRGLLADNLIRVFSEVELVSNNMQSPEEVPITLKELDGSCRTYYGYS
Experimental: […] […] Fluorescence was measured using an fmax fluorescence microplate reader from Molecular Devices (Sunnyvale, Calif.).
(§1) Phage binding to COS-1 cells transfected with MDP was determined as follows. Briefly, 10^7 COS-1 cells were transfected with 10 μg of either the MDP expression vector or the vector alone. After 48 hours, cells were scraped gently from the dish, washed once, and subjected to the phage binding assay or membrane dipeptidase activity assay described above. For the phage binding assay, 5×10^6 cells and 10^10 transducing units (TU) of phage input were used. For measurement of membrane dipeptidase activity, 10^6 cells were lysed in 100 μl of PBS/octylglycoside without protease inhibitors. A 10 μl aliquot of the extract was used to measure MDP activity.
Fluorimetric detection of D-Phe was performed as described above.

mouse B16 = assay: experimental lung metastasis of B16 melanoma cells; type: in vivo, mice; conditions: mouse B16 melanoma cell line
Description: As disclosed herein, selective homing of GFE-1 (SEQ ID NO: 1) to lung endothelium in vivo is mediated by the cell surface protease, MDP.

rat lung blood vessels = assay: targeting of rat lung blood vessels by injected phage; type: in vivo; conditions: phage injected in the circulation
murine MDP = target: T2, murine MDP (Mus musculus, UniProt P31428); assay: phage binding to COS-1 cells transfected with MDP
T2 construct: The amplified 1.3 kb murine MDP cDNA was digested with KpnI and XbaI, and inserted into the same sites of the pcDNA3 expression vector; expressed in transfected cells; host or cells: COS-1 cells, pcDNA3 expression vector
T2 sequence (P31428 17-384): T1 sequence (P31428 17-384)
Experimental: The COS-1 cell line, which is known to have low or no detectable level of MDP activity, has been used extensively to study MDP structure and function (Keynan et al., supra, 1996; Keynan et al., Biochem, J. 326:47-51 (1997)). COS-1 cells were trasfected with murine MDP and used to assay binding to SEQ ID NOS: 1 and 2 as described below.
For transfection into COS-1 cells, a murine MDP expression vector was prepared as follows. Total mouse lung RNA was isolated using Qiagen RNA purification columns (Qiagen; Santa Clarita, Calif.) and used as a template for first strand cDNA synthesis with reverse transcriptase and a mixture of random hexamers and poly-dT oligonucleotides (GIBCO/BRL; Grand Island, N.Y.). Mouse MDP cDNA (Pasqualini et al., J. Cell Biol. 130:1189-1196 (1995)) was amplified from the cDNA pool by PCR using the oligonucleotide pair: […] (SEQ ID NO: 446), which contains a KpnI adaptor, and […] (SEQ ID NO: 447), which contains an XbaI adaptor, using Taq polymerase from GIBCO/BRL. The amplified 1.3 kb murine MDP cDNA was digested with KpnI and XbaI, and inserted into the same sites of the pcDNA3 expression vector (Invitrogen; Carlsbad, Calif.) using DNA restriction enzymes and T4 DNA ligase from New England Biolabs (Beverly, Mass.). Successful cloning of the murine MDP cDNA was confirmed by DNA sequencing. Transfection of the COS-1 cells was performed with the Superfect Reagent from Qiagen as recommended by the manufacturer.
as §1

lung = assay: immunohistologic analysis of lung homing phage; type: in vivo, mice
Experimental: Phage displaying homing peptides were detected in lung, pancreas and skin by immunostaining histologic sections obtained 5 min after administration of phage expressing a lung, pancreas or skin homing peptide (“peptide-phage”) to a mouse. Following administration of the peptide-phage, mice were handled as described above and various organs, including lung, pancreas and skin, were removed and fixed in Bouin's solution (SIGMA). Histologic sections were prepared and reacted with anti-M13 (phage) antibodies (Pharmacia Biotech; see U.S. Pat. No. 5,622,699, supra, 1997; Pasqualini and Ruoslahti, supra, 1996). Visualization of the bound anti-M13 antibody was performed using a second antibody conjugated to peroxidase (SIGMA) according to the manufacturer's instructions.
Phage displaying the lung homing peptide, GFE-1 (SEQ ID NO: 1), were administered intravenously to mice and, after 5 minutes of circulation, the lung was isolated and processed as described above. […] However, staining of bronchiolar walls and some larger blood vessels was absent.

CGFECVRQCPERC [lung homing peptide]
inhibition of hydrolysis of Gly-D-Phe by MDP (MDP): inhibits hydrolysis of the Gly-D-Phe substrate in a dose-dependent manner; also recorded: inhibited hydrolysis of the Gly-D-Phe substrate (0.5 mM) in a dose-dependent manner; also recorded: inhibition of MDP activity | experimental lung metastasis (mouse B16): inhibit experimental lung metastasis | targeting of rat lung blood vessels (rat lung blood vessels): selectively target rat lung blood vessels | phage bound to MDP transfected cells than to mock transfected cells (murine MDP; 5×10^6 COS-1 cells, 10^10 TU phage): 4 fold | inhibition of binding of GFE-1 and GFE-2 phage to MDP-transfected cells (murine MDP; data not shown): completely inhibited | immunohistochemical staining of lung (lung; 5 min after intravenous phage): staining of the alveolar capillaries was observed | staining of pancreas and skin after lung homing phage (lung; control tissues): no staining was observed in pancreas and skin
